Values after ≈ are worked out from the molar mass of the structure shown.

The test deals with Mycobacterium tuberculosis variant bovis BCG. Nature of the test: Antibacterial activity against Mycobacterium bovis BCG ATCC 35734 up to 2 weeks by HT-SPOTi assay. It is filed as functional. To be noted: ATCC 35734, 336 h.
As for `CCCCCCCC(=O)NCC#Cc1cn([C@H]2C[C@H](O)[C@@H](COP(=O)(N[C@@H](C)C(=O)OCC)Oc3ccccc3)O2)c(=O)[nH]c1=O` (stereo partly drawn), the MIC was 250 µg/mL (≈ 377 µM).

`CCCCCCCC(=O)NCC#Cc1cn([C@H]2C[C@H](O)[C@@H](CO)O2)c(=O)[nH]c1=O` came in with a minimal inhibitory concentration (MIC) greater than 250 µg/mL.

Turning to `CCCCCCCC(=O)NCC#Cc1cn([C@H]2C[C@H](O)[C@@H](COP(=O)(N[C@@H](C)C(=O)OC)Oc3cccc4ccccc34)O2)c(=O)[nH]c1=O` (stereo partly drawn), the lowest concentration to inhibit growth (MIC) was 62.5 µg/mL (≈ 89.5 µM).

In the case of `CCCCCCCC(=O)NCC#Cc1cn([C@H]2C[C@H](O)[C@@H](COP(=O)(N[C@@H](C)C(=O)OCc3ccccc3)Oc3cccc4ccccc34)O2)c(=O)[nH]c1=O` (stereo partly drawn), 250 µg/mL (≈ 323 µM) was the least that counted as inhibitory (MIC).

Take `CCCCCCCC(=O)NCC#Cc1cn([C@H]2C[C@H](O)[C@@H](COP(=O)(N[C@@H](C)C(=O)OCC)Oc3cccc4ccccc34)O2)c(=O)[nH]c1=O` (stereo partly drawn): inhibition of growth (MIC) required 125 µg/mL (≈ 175 µM).

`CCCCCCCC(=O)NCC#Cc1cn([C@H]2C[C@H](O)[C@@H](COP(=O)(N[C@H](C(=O)OCc3ccccc3)C(C)C)Oc3ccccc3)O2)c(=O)[nH]c1=O` (stereo partly drawn) yielded an MIC of 125 µg/mL (≈ 166 µM).

On to `CCCCCCCC(=O)NCC#Cc1cn([C@H]2C[C@H](O)[C@@H](COP(=O)(NC(C)(C)C(=O)OCc3ccccc3)Oc3ccccc3)O2)c(=O)[nH]c1=O` (stereo partly drawn), for which inhibition of growth (MIC) required 125 µg/mL (≈ 169 µM).

Turning to `CCCCCCCC(=O)NCC#Cc1cn([C@H]2C[C@H](O)[C@@H](COP(=O)(N[C@@H](C)C(=O)OCC(C)C)Oc3cccc4ccccc34)O2)c(=O)[nH]c1=O` (stereo partly drawn), it took 125 µg/mL (≈ 169 µM) to inhibit growth (MIC).

`CCCCCCCC(=O)NCC#Cc1cn([C@H]2C[C@H](O)[C@@H](COP(=O)(N[C@H](C)C(=O)OCc3ccccc3)Oc3ccccc3)O2)c(=O)[nH]c1=O` (stereo partly drawn) yielded a minimal inhibitory concentration (MIC) of 62.5 µg/mL (≈ 86.2 µM).

The compound `CCCCCCCC(=O)NCC#Cc1cn([C@H]2C[C@H](O)[C@@H](COP(=O)(NCC(=O)OCc3ccccc3)Oc3ccccc3)O2)c(=O)[nH]c1=O` (stereo partly drawn) gave a minimal inhibitory concentration (MIC) greater than 250 µg/mL.

As to `CCCCCCCC(=O)NCC#Cc1cn([C@H]2C[C@H](O)[C@@H](COP(=O)(N[C@@H](C)C(=O)OC)Oc3ccccc3)O2)c(=O)[nH]c1=O` (stereo partly drawn), the MIC was greater than 250 µg/mL.

For `CCCCCCCC(=O)NCC#Cc1cn([C@H]2C[C@H](O)[C@@H](COP(=O)(N[C@@H](C)C(=O)OCc3ccccc3)Oc3ccccc3)O2)c(=O)[nH]c1=O` (stereo partly drawn), it took 125 µg/mL (≈ 172 µM) to inhibit growth (MIC).

As to `CCCCCCCC(=O)NCC#Cc1cn([C@H]2C[C@H](O)[C@@H](COP(=O)(N[C@@H](C)C(=O)OCCC)Oc3ccccc3)O2)c(=O)[nH]c1=O` (stereo partly drawn), the MIC amounted to 125 µg/mL (≈ 185 µM).

The values are drawn from ChEMBL document CHEMBL3259765, “ProTides of N-(3-(5-(2'-deoxyuridine))prop-2-ynyl)octanamide as potential anti-tubercular and anti-viral agents” (Bioorg Med Chem, 2014).
